Columns and labels:
[1] = tested on: L1210 cells; experiment: Release of photosensitizer from preloaded L1210 cells; type: cell-based, murine; conditions: preloaded at 3 μg/ml for 1 hr, drug-free medium with 10% fetal bovine serum; compared with BPD-MA
Method: The kinetics of release of these drugs from L1210 cells was measured by preloading the cells at 3 μg/ml for 1 hr and then placing the cells in drug-free medium containing 10% fetal bovine serum. Remaining intracellular drug content was measured at various time points by lysing the cells and measuring fluorescence.

[2] = tested on: L1210 cells; experiment: Uptake of photosensitizer by L1210 cells (fluorescence of cell lysates); type: cell-based, murine; conditions: 3 μg/ml, 10% fetal bovine serum
Method: BPD-MA or B-EA6 were incubated at 3 μg/ml in the presence of 10% fetal bovine serum with 10^7/mL of L1210 cells, a murine leukemia cell line. Intracellular content of the photosensitizers was measured by fluorescence of cell lysates at various times. […] The time course of uptake is shown in FIG. 2 as a percentage of cell content at 60 min by which time uptake had reached a maximum in both cases. As shown, B-EA6 is taken up more rapidly and reaches […] of its maximum concentration after only 5 min and reached its maximum uptake within 15 min.

[3] = tested on: CD80 (B7-1); experiment: Low-dose PDT, expression of cell surface antigens by peritoneal macrophages: CD80; type: cell-based, murine; conditions: BPD-MA 2.5 ng/ml, B-EA6 0.5 ng/ml; 690 nm LED 5 J/cm^2, 24 hr later
Method: (§1) In an additional assay to determine immunomodulation, murine peritoneal macrophages were isolated, purified and activated by recombinant interferon-γ (100 U/ml). […] Expression levels of MHC I, MHC II, CD54, CD80 and CD86 were determined 24 hr later using FITC conjugated antibodies and a cell sorter. The results are shown in Table 4 for B-EA6 at 0.5 ng/ml in comparison to similar experiments using BPD-MA at 2.5 ng/ml. The results in the table are given as a percent of expression as compared to cells treated with light only. As shown, BPD-MA and B-EA6 were both able to reduce expression of MHC II, but not the remaining surface markers. Thus, although B-EA6 has advantageous pharmacokinetics, it retains the immunomodulatory activity of BPD-MA and other compounds of this group.

[4] = tested on: CD54 (ICAM-1); experiment: Low-dose PDT, expression of cell surface antigens by peritoneal macrophages: CD54; type: cell-based, murine; conditions: BPD-MA 2.5 ng/ml, B-EA6 0.5 ng/ml; 690 nm LED 5 J/cm^2, 24 hr later
Method: as §1

[5] = tested on: M1 (rhabdomyosarcoma) tumor; experiment: Tumor selectivity of PDT in mice bearing subcutaneous M1 tumor; type: in vivo, DBA/2 mice; conditions: 0.75 mg/kg liposomal IV, 15 min, 50 J/cm^2 690 nm
Method: Mice were administered 0.75 mg/kg of B-EA6 in a liposomal formulation intravenously. After 15 min, a 1 cm area which included a 5 mm diameter tumor was exposed to 50 J/cm^2 of 70 mW light of 690 nm wavelength from an argon-pumped dye laser.

[6] = In vivo pharmacokinetics, drug content of tissues by fluorescence in tissue extracts; set-up: species or system DBA/2 mice; conditions: 4 mg/kg intravenous
Method: Either BPD-MA or B-EA6 was administered by intravenous injection into DBA/2 mice at a dose of 4 mg/kg using 3 mice per time point. The drug content of plasma, skin, liver and kidney was determined by fluorescence in the tissue extracts.

[7] = tested on: MHC Class II; experiment: Low-dose PDT, expression of cell surface antigens by peritoneal macrophages: MHC Class II; type: cell-based, murine; conditions: BPD-MA 2.5 ng/ml, B-EA6 0.5 ng/ml; 690 nm LED 5 J/cm^2, 24 hr later
Method: as §1

[8] = tested on: adjuvant-enhanced arthritis; experiment: Arthritis model, adjuvant-enhanced, PDT on days 0, 10, 20; type: in vivo, MRL-Ipr mice; conditions: 0.5 mg/kg liposomal IV, red light 80 J/cm^2 at 1 hr
Method: MRL-Ipr mice spontaneously develop arthritis; this was enhanced by intradermal injection of Freund's Adjuvant. Various numbers of MRL-Ipr mice were treated with PDT on days 0, 10, and 20 after injection of the adjuvant. […] The mice were observed and symptoms scored every 5 days for 30 days. The results are shown in FIG. 6 in comparison to mice similarly treated with BPD-MA and BPD-MB.

[9] = tested on: DNFB-induced ear swelling; experiment: Contact hypersensitivity (CHS) assay, DNFB ear swelling; type: in vivo, Balb/C mice; conditions: 1 mg/kg liposomal IV
Method: Balb/C mice (5–8 mice per group) were tested using the delayed skin photosensitivity assay also called the contact hypersensitivity (CHS) assay. The mice were painted in the flank with the sensitizing agent dinitrofluorobenzene (DNFB) and 5 days later, one ear is challenged with DNFB, while the other serves as a control. The swelling is an indicator of immune response. […] The swelling in both cases was only approximately 60% of the that shown in mice without treatment.

[10] = tested on: MHC Class I; experiment: Low-dose PDT, expression of cell surface antigens by peritoneal macrophages: MHC Class I; type: cell-based, murine; conditions: BPD-MA 2.5 ng/ml, B-EA6 0.5 ng/ml; 690 nm LED 5 J/cm^2, 24 hr later
Method: as §1

[11] = tested on: M1 rhabdomyosarcoma tumors; experiment: PDT bioassay in mouse tumor model, tumor-free on day 7; type: in vivo, DBA/2 mice
Method: The pharmacokinetics were also determined using an in vivo mouse tumor model. Groups of 10 DBA/2 mice containing M1 rhabdomyosarcoma tumors were injected intravenously with a liposomal formulation of BPD-MA at various dosages of 0.75–1.5 mg/kg. The tumors were irradiated with 690 nm laser light at 50 or 150 J/cm^2 at various times after injection.

[12] = tested on: L1210 cells; experiment: LD50 / photocytotoxicity on L1210 cells, 9 J/cm^2 broad spectrum light, MTT assay; type: cell-based, murine
Method: Either B-EA6 or BPD-MA was incubated for 1 hr with L1210 cells at a range of concentrations and exposed to 9 J/cm^2 broad spectrum light. This determination was made in the absence of serum and in the presence of 10% serum.
The ability of B-EA6 to exert a cytotoxic effect on L1210 cells in vitro was further tested by incubating the cells with B-EA6 at various concentrations for 1 hr in the absence of serum. After excess drug was removed, the cells were exposed to 9 J/cm^2 broad spectrum light (380–750 nm) and cell survival was determined by the MTT assay (Mosmann, T. et al. J Immunol Meth (1983) 65:55–63). The percentage of killed cells was calculated in reference to survival of cells exposed to light only.

[13] = tested on: splenocytes; conditions: 3 μg/ml, after an hour of incubation
Method: The ability of L1210 cells to accumulate B-EA6 was compared to the ability of splenocytes to do so. B-EA6 at 3 μg/ml was incubated with each cell type and the cell content of B-EA6 was determined by fluorescence in cell lysates.

[14] = tested on: CD86 (B7-2); experiment: Low-dose PDT, expression of cell surface antigens by peritoneal macrophages: CD86; type: cell-based, murine; conditions: BPD-MA 2.5 ng/ml, B-EA6 0.5 ng/ml; 690 nm LED 5 J/cm^2, 24 hr later
Method: as §1

[15] = tested on: arterioles and venules; experiment: Mouse cremaster muscle model, effect on microvasculature; type: in vivo; conditions: 2 mg/kg IV, 25 J/cm^2 per 5 min
Method: The mouse cremaster muscle model was used. B-EA6 was administered intravenously at 2 mg/kg and starting at 5 and 15 min postinjection, surgically exposed arterioles and venules were irradiated with light at an intensity of 25 J/cm^2 per 5 min beginning at 5 min and 15 min after injection of the B-EA6. The vessels were measured as red blood column diameter as a percentage of controls.

C=Cc1c(C)c2cc3nc(cc4[nH]c(cc5nc(cc1[nH]2)C1(C)C5=CC=C(C(=O)OC)C1C(=O)OC)c(C)c4CCC(=O)OCCO)C(CCC(=O)OCCO)=C3C (centres unmarked) [B-EA6]
initial release from cells [1]: much more rapid | time to maximum uptake [2]: ≤ 15 min | maximum concentration reached (intracellular content) ([2]; 10^7/mL L1210 cells): 145.9 ng/10^6 cells | CD80 (B7-1) expression, percent of cells treated with light only [3]: 102.3% | CD54 (ICAM-1) expression, percent of cells treated with light only [4]: 106.9% | effect of PDT on surrounding normal skin [5]: did not affect the surrounding normal skin | effect of PDT on tumor [5]: effectively eliminated the tumor | accumulation in skin ([6]; first 3 hr): does not | T½ (15 min-3 hours) Kidney ([6]; kidney): 48 min | T½ (15 min-3 hours) Liver ([6]; liver): 36 min | T½ (15 min-3 hours) Muscle ([6]; muscle): 666 min | T½ (15 min-3 hours) Plasma ([6]; plasma): 36 min | accumulation in plasma, liver or kidney ([6]; relative to 15 min postinjection): neither BPD-MA nor B-EA6 accumulated | T½ (15 min-3 hours) Skin ([6]; skin): 114 min | T½ (15 min-3 hours) Spleen ([6]; spleen): 48 min | MHC Class II expression, percent of cells treated with light only [7]: 71.8% | prevention of arthritis symptoms (incidence of clinical symptoms, bimaleolar ankle width) [8]: effective in preventing the sequellae of adjuvant injection | ear swelling relative to mice without treatment ([9]; 15 J/cm^2 whole body light): approximately 60% | ear swelling relative to mice without treatment ([9]; ambient light): approximately 60% | MHC Class I expression, percent of cells treated with light only [10]: 100.4% | Percent Tumor Free on Day 7 ([11]; 0.75 mg/kg liposomal IV, light 15 min post IV, 50 J/cm^2 690 nm): 50% | Percent Tumor Free on Day 7 ([11]; 0.75 mg/kg liposomal IV, light 30 min post IV, 50 J/cm^2 690 nm): 0% | Percent Tumor Free on Day 7 ([11]; 1.0 mg/kg liposomal IV, light 15 min post IV, 50 J/cm^2 690 nm): 90% | Percent Tumor Free on Day 7 ([11]; 1.0 mg/kg liposomal IV, light 30 min post IV, 50 J/cm^2 690 nm): 0% | Percent Tumor Free on Day 7 ([11]; 1.5 mg/kg liposomal IV, light 180 min post IV, 150 J/cm^2 690 nm): 0% | percentage of cells that did not survive ([12]; 15 ng/ml, no serum, 9 J/cm^2 light (380–750 nm), vs light only): ~100% | LD50, 10% serum ([12]; L1210 cells, 1 hr incubation, 9 J/cm^2 broad spectrum light, 10% serum): 19.7 ng/mL | percentage of killed cells ([12]; approximately 7 ng/ml, no serum, 9 J/cm^2 light (380–750 nm), vs light only): 80% | cell content of B-EA6 accumulated [13]: less than 20 ng/10^6 cells | CD86 (B7-2) expression, percent of cells treated with light only [14]: 92.2% | vessel closure ([15]; irradiation started after 15 min): permanent closure | vessel closure ([15]; irradiation started at 5 min): transient vessel closure

Source: patent publication US7122569B2, “Ethylene glycol esters as photoactive agents” (priority 1997, dated 2006)
